Results taken from paper PMC11990615 (Molecules, 2025).
Values joined by “and” are separate entries in the source; they are usually repeats but may differ in a detail not shown here. Identical values can stand only once.

test system: not listed separately; experiment: Octanol-water partition coefficient, shake-flask method; format: physicochemical; details: n-octanol/water, 25 °C
Protocol: Initially, a n-octanol solution containing 2000 mg/L of the compound was mixed with water in centrifuge tubes at 1:2, 1:1, and 2:1 volume ratios, with two parallel samples for each ratio. All tubes were shaken at a constant temperature of 25 °C for 3 h. Subsequently, the samples were centrifuged at 4000 rpm for 10 min. The octanol and aqueous phases were then carefully collected and diluted tenfold with methanol, and their concentrations were measured using HPLC-UV and HPLC-MS/MS, respectively. Instrument specifications are detailed in the Supporting Information.

Compound | logKow
CCCN(CCOc1c(Cl)cc(Cl)cc1Cl)C(=O)n1ccnc1 [Prochloraz, N-propyl-N-(2,4,6-trichlorophenoxy)ethyl-imidazole-1-carboxamide] | 3.52

test system: not listed separately; experiment: Interfacial surface tension, Wilhelmy plate method; format: physicochemical; details: saturated aqueous solution, 25 °C; no unit printed with the values (method: mN/m)
Protocol: Pure water’s surface tension was used to calibrate the device. After cleaning and drying, the sensing platinum plate was slowly oriented perpendicular to the solution interface. The plate will stop when the liquid surface tension and other relevant forces reach a balance. The interfacial surface tension values of the test chemicals were noted. Each compound was determined with three parallel samples.

Compound | Interfacial surface tension
CCCN(CCOc1c(Cl)cc(Cl)cc1Cl)C(=O)n1ccnc1 [Prochloraz, N-propyl-N-(2,4,6-trichlorophenoxy)ethyl-imidazole-1-carboxamide] | 51.75
CCCCCCCCC(=O)O.CCCN(CCOc1c(Cl)cc(Cl)cc1Cl)C(=O)n1ccnc1 [[Pro][NonA]] | 41.24
CCCCCCCCC=CCCCCCCCC(=O)O.CCCN(CCOc1c(Cl)cc(Cl)cc1Cl)C(=O)n1ccnc1 [[Pro][OleA]] | 42.53

test system: not given; experiment: not given; design: method as in earlier work; details: cited from earlier work

Compound | Photolysis half-life in water
CCCN(CCOc1c(Cl)cc(Cl)cc1Cl)C(=O)n1ccnc1 [Prochloraz, N-propyl-N-(2,4,6-trichlorophenoxy)ethyl-imidazole-1-carboxamide] | 36 h

test system: not listed separately; experiment: Photostability under UV irradiation (photolysis kinetics); format: physicochemical; details: aqueous solution 26.6 μmol/L, 15 W UV lamp 254 nm, 25 °C
Protocol: Photostability evaluation. […] At different time intervals (0, 0.5, 1, 1.5, 2, 3, 4, and 6 h), 100 μL of the solutions was accurately removed from the vials, diluted tenfold with methanol, and analyzed by HPLC-MS/MS. Instrument specifications are detailed in the Supporting Information.
As dark controls, aluminum foil-wrapped quartz tubes were used to prevent the impact of outside variables. […] The coefficient of determination r^2 was used to describe the goodness of fit of the curves. The half-lives t1/2 of the chemicals were calculated by the following formula:(2) t1/2=−ln(0.5)/K

Compound | K, first-order photolysis rate constant | t1/2, photolysis half-life
CCCN(CCOc1c(Cl)cc(Cl)cc1Cl)C(=O)n1ccnc1 [Prochloraz, N-propyl-N-(2,4,6-trichlorophenoxy)ethyl-imidazole-1-carboxamide] | 0.641 h⁻¹ | 
CC(=O)O.CCCN(CCOc1c(Cl)cc(Cl)cc1Cl)C(=O)n1ccnc1 [[Pro][AceA]] [listing 1 of 2 here] | 0.400 h⁻¹ | 
CCCN(CCOc1c(Cl)cc(Cl)cc1Cl)C(=O)n1ccnc1.O=C(O)c1ccccc1 [[Pro][BenA]] [listing 1 of 2 here] | 0.774 h⁻¹ | 
CCCN(CCOc1c(Cl)cc(Cl)cc1Cl)C(=O)n1ccnc1.O=C(O)/C=C/c1ccccc1 [[Pro][CinA]] | 0.305 h⁻¹ | 
CC(O)C(=O)O.CCCN(CCOc1c(Cl)cc(Cl)cc1Cl)C(=O)n1ccnc1 [[Pro][LacA]] [listing 1 of 2 here] | 0.391 h⁻¹ | 
CCCCCCCCC(=O)O.CCCN(CCOc1c(Cl)cc(Cl)cc1Cl)C(=O)n1ccnc1 [[Pro][NonA]] | 0.438 h⁻¹ | 1.58 h
CCCCCCCCC=CCCCCCCCC(=O)O.CCCN(CCOc1c(Cl)cc(Cl)cc1Cl)C(=O)n1ccnc1 [[Pro][OleA]] | 0.552 h⁻¹ | 
CC(=O)C(=O)O.CCCN(CCOc1c(Cl)cc(Cl)cc1Cl)C(=O)n1ccnc1 [[Pro][PyrA]] | 0.383 h⁻¹ | 1.81 h
CCCN(CCOc1c(Cl)cc(Cl)cc1Cl)C(=O)n1ccnc1.O=C(O)c1ccccc1O [[Pro][SalA]] [listing 1 of 2 here] | 0.401 h⁻¹ | 

same assay, conditions: aqueous solution 26.6 μmol/L, 15 W UV lamp 254 nm, 25 °C; read-out: t1/2, photolysis half-life (converted)

Compound | half-life at 26.6 μmol/L
CCCN(CCOc1c(Cl)cc(Cl)cc1Cl)C(=O)n1ccnc1 [Prochloraz, N-propyl-N-(2,4,6-trichlorophenoxy)ethyl-imidazole-1-carboxamide] | 1.08 h
CC(=O)O.CCCN(CCOc1c(Cl)cc(Cl)cc1Cl)C(=O)n1ccnc1 [[Pro][AceA]] [listing 2 of 2 here] | 1.73 h
CCCN(CCOc1c(Cl)cc(Cl)cc1Cl)C(=O)n1ccnc1.O=C(O)c1ccccc1 [[Pro][BenA]] [listing 2 of 2 here] | 0.9 h
CC(O)C(=O)O.CCCN(CCOc1c(Cl)cc(Cl)cc1Cl)C(=O)n1ccnc1 [[Pro][LacA]] [listing 2 of 2 here] | 1.77 h
CCCN(CCOc1c(Cl)cc(Cl)cc1Cl)C(=O)n1ccnc1.O=C(O)c1ccccc1O [[Pro][SalA]] [listing 2 of 2 here] | 1.73 h

test system: not given; experiment: not given; details: weak base; no reference given; cited from earlier work

Compound | pKa
CCCN(CCOc1c(Cl)cc(Cl)cc1Cl)C(=O)n1ccnc1 [Prochloraz, N-propyl-N-(2,4,6-trichlorophenoxy)ethyl-imidazole-1-carboxamide] | 3.8

test system: aquatic organisms; experiment: not given; design: method as in earlier work; details: cited from earlier work

Compound | Concentrations at which embryonic mortality and developmental effects were observed
CCCN(CCOc1c(Cl)cc(Cl)cc1Cl)C(=O)n1ccnc1 [Prochloraz, N-propyl-N-(2,4,6-trichlorophenoxy)ethyl-imidazole-1-carboxamide] | 2400 ng/mL and 4800 ng/mL

test system: Colletotrichum gloeosporioides; experiment: Fungicidal activity, mycelial growth inhibition on PDA plates; details: Colletotrichum gloeosporioides, 96 h, mycelial growth, 96 h dark incubation at 26 °C
Protocol: Pure water was used as a negative control. Mycelial plugs with a diameter of 5 mm were positioned in the middle of PDA plates that held various sample concentrations. Every treatment was carried out three times. […] The formula used to compute the suppression of mycelial growth was inhibition (%) = (Dc − Dt)/(Dc − 5) × 100%, where Dc and Dt are the diameters in millimeters of the treatment colony and the control colony, respectively. […] The tests, in turn, constructed t-statistics and determined the signifi-cance of differences between groups.

Compound | IC50
CCCN(CCOc1c(Cl)cc(Cl)cc1Cl)C(=O)n1ccnc1 [Prochloraz, N-propyl-N-(2,4,6-trichlorophenoxy)ethyl-imidazole-1-carboxamide] | 1.39 µM and 0.52 µg/mL
CC(=O)O.CCCN(CCOc1c(Cl)cc(Cl)cc1Cl)C(=O)n1ccnc1 [[Pro][AceA]] [listing 2 of 2 here] | 0.53 µg/mL
CCCN(CCOc1c(Cl)cc(Cl)cc1Cl)C(=O)n1ccnc1.O=C(O)c1ccccc1 [[Pro][BenA]] [listing 2 of 2 here] | 1.04 µg/mL
CC(O)C(=O)O.CCCN(CCOc1c(Cl)cc(Cl)cc1Cl)C(=O)n1ccnc1 [[Pro][LacA]] [listing 2 of 2 here] | 0.81 µg/mL
CCCN(CCOc1c(Cl)cc(Cl)cc1Cl)C(=O)n1ccnc1.O=C(O)c1ccccc1O [[Pro][SalA]] [listing 2 of 2 here] | 1 µg/mL

same assay, conditions: Colletotrichum gloeosporioides, read-out: Inhibition rate

Compound | inhibition at 26.5 µM
O=C(O)c1ccccc1 [Benzoic acids, Benzoic acid] | 7.2 ± 1.2%
O=C(O)/C=C/c1ccccc1 [Cinnamic acids, Cinnamic acid] | 7.5 ± 2.4%
CC(O)C(=O)O (stereo not shown) [Lactic acids, Lactic acid] | 6 ± 1%
CCCCCCCCC(=O)O [Nonanoic acids, Nonanoic acid] | 1.8 ± 1.3%
CCCCCCCC/C=C\CCCCCCCC(=O)O [Oleic acids, Oleic acid] | 3.4 ± 1.3%
CCCN(CCOc1c(Cl)cc(Cl)cc1Cl)C(=O)n1ccnc1 [Prochloraz, N-propyl-N-(2,4,6-trichlorophenoxy)ethyl-imidazole-1-carboxamide] | 100 ± 0.1%
CC(=O)C(=O)O [Pyruvic acids, Pyruvic acid] | 4.5 ± 0.4%
O=C(O)c1ccccc1O [Salicylic acids, Salicylic acid] | 4.5 ± 0.3%

same assay, conditions: at a concentration of 26.5 μmol/L

Compound | Inhibition rate
CC(=O)O [Acetic acids, Acetic acid] | 8.3 ± 2.3%
O=C([O-])c1ccccc1O.[Na+] [Sodium Salicylate] | 2.0 ± 2.7%
CC(=O)[O-].[Na+] [Sodium acetate] | 5.9 ± 0.5%
O=C([O-])c1ccccc1.[Na+] [Sodium benzoate] | 3.0 ± 1.1%
O=C([O-])/C=C/c1ccccc1.[Na+] [Sodium cinnamate] | 2.8 ± 1.1%
CC(O)C(=O)[O-].[Na+] (stereo not shown) [Sodium lactate] | 4.0 ± 0.4%
CCCCCCCCC(=O)[O-].[Na+] [Sodium nonanoate] | 2.9 ± 0.3%
CCCCCCCC/C=C\CCCCCCCC(=O)[O-].[Na+] [Sodium oleate] | 3.9 ± 2.6%
CC(=O)C(=O)[O-].[Na+] [Sodium pyruvate] | 3.5 ± 0.2%

same assay, conditions: mycelial growth, 96 h dark incubation at 26 °C

Compound | IC50
CC(=O)O.CCCN(CCOc1c(Cl)cc(Cl)cc1Cl)C(=O)n1ccnc1 [[Pro][AceA]] [listing 1 of 2 here] | 1220 nM
CCCN(CCOc1c(Cl)cc(Cl)cc1Cl)C(=O)n1ccnc1.O=C(O)c1ccccc1 [[Pro][BenA]] [listing 1 of 2 here] | 2090 nM
CCCN(CCOc1c(Cl)cc(Cl)cc1Cl)C(=O)n1ccnc1.O=C(O)/C=C/c1ccccc1 [[Pro][CinA]] | 2 µM and 1.05 mg/L
CC(O)C(=O)O.CCCN(CCOc1c(Cl)cc(Cl)cc1Cl)C(=O)n1ccnc1 [[Pro][LacA]] [listing 1 of 2 here] | 1740 nM
CCCCCCCCC=CCCCCCCCC(=O)O.CCCN(CCOc1c(Cl)cc(Cl)cc1Cl)C(=O)n1ccnc1 [[Pro][OleA]] | 1.33 µg/mL
CCCN(CCOc1c(Cl)cc(Cl)cc1Cl)C(=O)n1ccnc1 [[Pro][OleA]] | 2020 nM
CCCN(CCOc1c(Cl)cc(Cl)cc1Cl)C(=O)n1ccnc1.O=C(O)c1ccccc1O [[Pro][SalA]] [listing 1 of 2 here] | 1940 nM
